“Also recorded” adds a separate entry of the source.
What was measured:
[1] = tested on: HBsAg-specific antibody and T cell responses; experiment: HBsAg immunization with Compositions 1-3 (different amounts of rapamycin + MPL); format: in vivo, mice
Protocol: Composition 1, comprising (dosage for one mouse): rapamycin 5 μg, MPL 10 μg, and PBS 0.2 ml;
Composition 2, comprising (dosage for one mouse): rapamycin 20 μg, MPL 10 μg, and PBS 0.2 ml;
Composition 3, comprising (dosage for one mouse): rapamycin 100 μg, MPL 10 μg, and PBS 0.2 mL.
Mice were immunized with Compositions 1-3 in mixture with HBsAg (5 μg, dosage for one mouse) respectively, and were boosted 3 weeks after the primary immunization. The mice were killed after one week, and the serum was prepared to determine the content of HBsAg-specific IgG1, IgG2b and IgG2c (FIG. 5). Meanwhile, spleen cells (5×10^5 cells) were respectively stimulated by using 10 μg/ml of CD8^+ T cell epitope peptide ([…] or VWLSVIWM) and CD4^+ T cell epitope peptide ([…]), and after 48 hours, enzyme linked immunosorbent assays (ELISA) was used to determine the content of IFNγ in the supernatant (FIG. 5b). […] Moreover, at all of the three concentrations, rapamycin has increased T cell response induced by MPL, especially the activation of CD4^+ and CD8^+ T cells which secrete IFN-γ (FIG. 5b).

[2] = tested on: OVA-specific T cell responses and antibody responses; experiment: Ovalbumin immunization of mice with adjuvants: OVA-specific T cell and antibody responses; format: in vivo
Protocol: 6-8 weeks aged mice were primarily immunized by the inventors using intraperitoneal injection method, wherein Ovalbumin (10 μg/mouse) was used as antigen and PBS (negative control), MPL (10 μg/mouse, positive control), rapamycin (100 μg/mouse), rapamycin (100 μg/mouse)+MPL (10 μg/mouse) as adjuvant respectively, and were immunized again with ovalbumin (10 μg/mouse, without adjuvant) at 3 weeks. […] After 48 hours, enzyme linked immunosorbent assay (ELISA) was used to determine the content of IFNγ in the supernatant.

[3] = tested on: BMDMs; experiment: Real-time quantitative PCR of gene expression in LPS-stimulated BMDMs; format: cell-based, C57BL/6 mice; conditions: 100 nM rapamycin
Protocol: Bone marrow stem cells of 6-8 weeks aged C57BL/6 mice were taken, and the cells are cultivated at 10^6 cells/mL cell density in bone marrow-derived macrophage (BMDM) differentiation medium (formulation of which was: RPMI 1640 complete medium added with 30% (v/v) L929 conditioned medium and 1% (v/v) pen/strep). After differentiation for 4 days, the old culture medium (comprising suspended cells) was removed and fresh BMDM differentiation medium was added. The adhered BMDMs were collected on the 7th day of differentiation and used in in vitro experiment.
The BMDMs were pre-treated with 100 nM of rapamycin or DMSO for 1 hour, and then the cells were stimulated with 100 ng/ml LPS […]. The cells were collected at 1, 2, 4 and 8 hours, and were cryopreserved in a refrigerator at −80° C. for the extraction and preparation of RNA.
TRIZOL (Invitrogen) method was used to extract RNA of BMDM, and Superscript™ III Reverse Transcriptase Kit (Invitrogen) was used to respectively reverse transcribe 1 μg RNA so as to synthesize the first-strand cDNA for Real-time quantitative PCR determine of gene expression levels. The primers for Real-time quantitative PCR are shown in table 1. ΔΔ method was used to calculate the relative expression level of the determined gene compared with GAPDH.

[4] = 5 μg of rapamycin + MPL 10 μg, HBsAg 5 μg per mouse
[5] = blood 1 week after secondary immunization, single adjuvants vs negative control, combination vs MPL alone
[6] = 100 ng/ml LPS, during 4 hours of LPS stimulation, relative to GAPDH

## CO[C@H]1C[C@@H]2CC[C@@H](C)[C@@](O)(O2)C(=O)C(=O)N2CCCC[C@H]2C(=O)O[C@H]([C@H](C)C[C@@H]2CC[C@@H](O)[C@H](OC)C2)CC(=O)[C@H](C)/C=C(\C)[C@@H](O)[C@@H](OC)C(=O)[C@H](C)C[C@H](C)/C=C/C=C/C=C/1C [rapamycin]
[1]; [4]
  antibody titers induced by MPL: significantly increase
  increase of secretion of IgG2b induced by MPL: ~5 times
  increase of secretion of IgG2c induced by MPL: ~5 times
[1]; all three amounts of rapamycin (5, 20, 100 μg) + MPL 10 μg, IFNγ ELISA of peptide-stimulated spleen cells
  T cell response induced by MPL (IFN-γ secreting CD4+ and CD8+ T cells): increased
[1]; different amounts of rapamycin, FIG. 5a
  HBsAg-specific antibody responses enhanced by MPL: increased
[1]; rapamycin raised to 20 or 100 μg + MPL 10 μg, HBsAg 5 μg per mouse
  antibodies induced by MPL: further enhanced
[1]; rapamycin within the range of 5-100 μg
  MPL-induced antibody titers and T cell response, dose dependence: dose-dependent manner
[2]; [5]
  OVA-specific IgG1 antibody titers: relatively moderate
  OVA-specific IgG2b antibody titers: relatively moderate; also recorded: enhanced
  OVA-specific IgG2c antibody titers: relatively moderate; also recorded: enhanced
[2]; mice i.p., ovalbumin 10 μg, MPL 10 μg, rapamycin 100 μg per mouse, IFNγ ELISA of splenic cells stimulated with OVA-1, 48 hours
  OVA-specific CD8+ T cell responses: relatively moderate; also recorded: enhanced
[2]; mice i.p., ovalbumin 10 μg, MPL 10 μg, rapamycin 100 μg per mouse, IFNγ ELISA of splenic cells stimulated with OVA-II, 48 hours
  OVA-specific CD4+ (Th1) T cell responses: relatively moderate; also recorded: enhanced
[3]; [6]
  expression of IL-10: inhibit the expression
  transcriptional expression of IL-12a: increased the transcriptional expression; also recorded: promote the transcript expression
  transcriptional expression of IL-12b: increased the transcriptional expression; also recorded: promote the transcript expression
  transcriptional expression of IL-23a: increased the transcriptional expression; also recorded: promote the transcript expression
[3]; LPS
  transcription and expression of CXCL2: did not affect the transcription and expression
  transcription and expression of TNFα: did not affect the transcription and expression
[3]; upon stimulation of LPS
  expression of CD40: no remarkable influence
  expression of CD80: no remarkable influence
  expression of CD86: no remarkable influence
  expression of PD-L1: remarkably decreased the expression; also recorded: inhibit the expression

From patent US20160279236A1, “USE OF RAPAMYCIN AS VACCINE ADJUVANT AND PREPARATION METHOD THEREFOR” (INSTITUT PASTEUR OF SHANGHAI, CHINESE ACADEMY OF SCIENCES, priority 2013, published 2016)
